{
  "source": "patent US6369297B1",
  "about": "“Inducible one-component plant gene tagging” (Academia Sinica, priority 2000, dated 2002)",
  "key": {"[1]": {"test_system": "INAc transposition (PR-1a::TPase)", "assay": "SA induction of INAc transposition in transgenic tobacco calli (luciferase activity of regenerated shoots)", "format": "cell-based", "conditions": "for shoots exhibiting high luciferase activity: line IK; for shoots with luciferase activity (transposition frequency): lines IA, IC, IM1, IN1, IP1, IR1; for shoots exhibiting luciferase activity out of shoots from SA-treated calli: 0.1 and 1 mM SA pooled", "experimental": "(§1) Assay of reporter gene activities. Luciferase activity was determined as described in Howell et al., “Use of the firefly luciferase gene as a reporter of gene expression in plants,” In: Gelvin et al., eds, Plant Molecular Biology Manual, pp. B8/1-B8/11, Kluwer Academic Publishers, Dordrecht, 1989; using a Lumat LB 9501 luminometer (Berthold, Munich, Germany). For imaging of luciferase activity, hygromycin-resistant (Hyg^R) seedlings were sprayed with luciferin, incubated in the dark for 5 minutes, and then placed under a charge-coupled device camera (ChemiImager 4000; Alpha Innotech, San Leandro, Calif.) for detection of luminescence. Image acquisition and processing were performed with AlphaEase software (Alpha Innotech). Exposure time was 30 minutes.\nInduction of INAc transposition. […] The effect of SA on INAc transposition was determined by incubating Hyg^R calli with a diameter of 0.5 to 1 cm for various times on callus regeneration medium containing either 0.1 or 1 mM SA. The calli for the transformed lines IA, IC, and IK were directly divided from the primary regenerated calli, which were large and generated many primary transformed shoots. For transformed lines IF, IM, IN, IP, and IR, the calli were obtained from the primary transformants IF1, IM1, IN1, IP1, and IR1. Leaf disks were excised and incubated on callus regeneration medium to yield enough calli for induction experiments. The calli were treated with 0.1 mM SA for 60 days, or were incubated with 1 mM SA for 10 days and then transferred to normal callus regeneration medium for an additional 50 days. As a control, calli were incubated on normal callus regeneration medium for 60 days. Luciferase activity was measured in the shoots that developed from the calli during incubation and was expressed as −, +, ++, or +++ as described in Table 2.\nThe numerical values in Table 2 indicate the number of LUC^+ shoots that were regenerated from SA-treated tobacco calli. Symbols denoting the amount of luciferase activity (RLU per microgram of total protein) are as follows: (−) <50 (with no typical luciferase activity kinetics); (+) 50 to 500 RLU; (++) 500 to 5000 RLU; and (+++)>5000 RLU."}, "[2]": {"test_system": "INAc transposition (PR-1a::TPase)", "assay": "SA induction of INAc transposition in flowering tissue; LUC assay of HygR R1 progeny", "format": "in vivo, tobacco", "experimental": "as §1\nAnalysis of SA-induced transposition in R1 progeny of transformed tobacco plants. An important feature of an inducible transposable element is its susceptibility to induced transposition in germinal tissue. Such susceptibility markedly increases the probability of success of transposon tagging in the isolation of important plant genes. To determine the effectiveness of INAc for gene tagging, the induction of transposition in germ-line tissue was studied using 14 transformed tobacco plants from lines IA, IM, IN, and IP. […] The flowering tissues of plants were sprayed with SA at concentrations of 50, 5, or 1 mM, and after 2 hours these tissues were watered to remove SA. […] The R1 progeny was analyzed by comparing the germination frequency apparent on normal germination medium with that observed on germination medium containing hygromycin B, as summarized in Table 3.\nThe proportion of LUC^+ seedlings after selection with hygromycin B was next determined. […] A large proportion of LUC^+ seedlings was apparent for transformed plants treated with SA (Table 3).\nWith this approach, the efficiency of INAc transposition was determined to be 0.2, 0.7, and 3.1% for transformed plants treated with 1, 5, and 50 mM SA, respectively, as shown in Table 4."}, "[3]": {"test_system": "transformed tobacco plants", "assay": "Germination frequency of R1 progeny and fruiting of SA-treated transformed tobacco plants", "format": "in vivo", "experimental": "An important feature of an inducible transposable element is its susceptibility to induced transposition in germinal tissue. Such susceptibility markedly increases the probability of success of transposon tagging in the isolation of important plant genes. To determine the effectiveness of INAc for gene tagging, the induction of transposition in germ-line tissue was studied using 14 transformed tobacco plants from lines IA, IM, IN, and IP. […] The R1 progeny was analyzed by comparing the germination frequency apparent on normal germination medium with that observed on germination medium containing hygromycin B, as summarized in Table 3.\nCapsules are designated A through E."}, "INAc transposition": {"test_system": "INAc transposition", "assay": "5-azacytidine as second inducer of transposition in tobacco seedlings harboring INAc", "format": "in vivo", "conditions": "0.1 mM 5-azacytidine combined with 1 mM SA", "text": "Other inducers. Given that 5-azacytidine was recently shown to enhance Ac excision in transformed plants (Scortecci et al., Plant Cell Physiol. 38:336-343, 1997), the use of this agent was examined as a second inducer to trigger transposition events in tobacco seedlings harboring INAc."}},
  "data": [
    {"compound": "O=C(O)c1ccccc1O", "note": "[SA, salicylic acid]", "values": [
      {"measurement": "shoots exhibiting medium (++) luciferase activity", "setting": "[1]; 0.1 mM SA, IA and IP1 calli, two out of nine shoots", "value": 22, "unit": "%"},
      {"measurement": "shoots exhibiting high luciferase activity", "setting": "[1]; 0.1 mM SA, 1 out of 9 shoots", "value": 11, "unit": "%"},
      {"measurement": "shoots with luciferase activity (transposition frequency)", "setting": "[1]; 0.1 mM SA, 33 out of 45 shoots", "value": 73, "unit": "%"},
      {"measurement": "induction of PR-1a::TPase expression and transposition events", "setting": "[1]; 0.1 mM SA, tobacco calli", "value": "sufficient to induce the expression of PR-1a::TPase"},
      {"measurement": "shoots exhibiting medium (++) or high (+++) luciferase activity", "setting": "[1]; 1 mM SA, IA and IP1 calli, 13 out of 25 shoots", "value": 52, "unit": "%"},
      {"measurement": "shoots exhibiting high luciferase activity", "setting": "[1]; 1 mM SA, 4 out of 16 shoots", "value": 25, "unit": "%"},
      {"measurement": "shoots with luciferase activity (transposition frequency)", "setting": "[1]; 1 mM SA, 27 out of 70 shoots", "value": 39, "unit": "%"},
      {"measurement": "luciferase activity in shoots regenerated from callus", "setting": "[1]; tobacco callus IC, presence of SA", "value": "not detected"},
      {"measurement": "luciferase activities of induced shoots versus uninduced shoots", "setting": "[1]; tobacco line IK", "value": "slightly higher"},
      {"measurement": "shoots exhibiting luciferase activity out of shoots from SA-treated calli", "setting": "[1]; tobacco line IM1", "value": "11 out of 24"},
      {"measurement": "shoots exhibiting luciferase activity out of shoots from SA-treated calli", "setting": "[1]; tobacco line IN1", "value": "11 out of 20"},
      {"measurement": "shoots exhibiting luciferase activity out of shoots from SA-treated calli", "setting": "[1]; tobacco line IP", "value": "15 out of 17"},
      {"measurement": "shoots exhibiting luciferase activity out of shoots from SA-treated calli", "setting": "[1]; tobacco line IR1", "value": "12 out of 20"},
      {"measurement": "S: Percentage of Hyg R progeny that were LUC+", "setting": "[2]; 1 mM SA, mean of tobacco lines IA, IM, IN, IP", "value": 29, "unit": "%"},
      {"measurement": "number of seedlings showing high luciferase activity", "setting": "[2]; 1 mM SA, of 1021 seedlings", "value": 2, "unit": "seedlings"},
      {"measurement": "S: Percentage of Hyg R progeny that were LUC+", "setting": "[2]; 1 mM SA, tobacco line IA", "value": 33, "unit": "%"},
      {"measurement": "G: Percentage of Hyg R progeny that exhibited high luciferase activity", "setting": "[2]; 1 mM SA, tobacco line IA (plant IA7)", "value": 0.4, "unit": "%"},
      {"measurement": "S: Percentage of Hyg R progeny that were LUC+", "setting": "[2]; 1 mM SA, tobacco line IM", "value": 11, "unit": "%"},
      {"measurement": "G: Percentage of Hyg R progeny that exhibited high luciferase activity", "setting": "[2]; 1 mM SA, tobacco line IM (plant IM4)", "value": 0.4, "unit": "%"},
      {"measurement": "G: Percentage of Hyg R progeny that exhibited high luciferase activity", "setting": "[2]; 1 mM SA, tobacco line IN", "value": 0, "unit": "%"},
      {"measurement": "S: Percentage of Hyg R progeny that were LUC+", "setting": "[2]; 1 mM SA, tobacco line IN", "value": 9, "unit": "%"},
      {"measurement": "G: Percentage of Hyg R progeny that exhibited high luciferase activity", "setting": "[2]; 1 mM SA, tobacco line IP", "value": 0, "unit": "%"},
      {"measurement": "S: Percentage of Hyg R progeny that were LUC+", "setting": "[2]; 1 mM SA, tobacco line IP", "value": 62, "unit": "%"},
      {"measurement": "HygR seedlings exhibiting high luciferase activity out of seedlings screened", "setting": "[2]; 5 mM SA, capsule B of plant IP9", "value": "12 out of 202"},
      {"measurement": "S: Percentage of Hyg R progeny that were LUC+", "setting": "[2]; 5 mM SA, mean of tobacco lines IA, IM, IN, IP", "value": 47, "unit": "%"},
      {"measurement": "number of seedlings showing high luciferase activity", "setting": "[2]; 5 mM SA, of 1000 seedlings", "value": 7, "unit": "seedlings"},
      {"measurement": "S: Percentage of Hyg R progeny that were LUC+", "setting": "[2]; 5 mM SA, tobacco line IA", "value": 60, "unit": "%"},
      {"measurement": "G: Percentage of Hyg R progeny that exhibited high luciferase activity", "setting": "[2]; 5 mM SA, tobacco line IA (plant IA6)", "value": 0.4, "unit": "%"},
      {"measurement": "S: Percentage of Hyg R progeny that were LUC+", "setting": "[2]; 5 mM SA, tobacco line IM", "value": 45, "unit": "%"},
      {"measurement": "G: Percentage of Hyg R progeny that exhibited high luciferase activity", "setting": "[2]; 5 mM SA, tobacco line IM (plant IM5)", "value": 0.8, "unit": "%"},
      {"measurement": "G: Percentage of Hyg R progeny that exhibited high luciferase activity", "setting": "[2]; 5 mM SA, tobacco line IN", "value": 0, "unit": "%"},
      {"measurement": "S: Percentage of Hyg R progeny that were LUC+", "setting": "[2]; 5 mM SA, tobacco line IN", "value": 15, "unit": "%"},
      {"measurement": "S: Percentage of Hyg R progeny that were LUC+", "setting": "[2]; 5 mM SA, tobacco line IP", "value": 68, "unit": "%"},
      {"measurement": "G: Percentage of Hyg R progeny that exhibited high luciferase activity", "setting": "[2]; 5 mM SA, tobacco line IP (plant IP9)", "value": 1.6, "unit": "%"},
      {"measurement": "S: Percentage of Hyg R progeny that were LUC+", "setting": "[2]; 50 mM SA, mean of tobacco lines IA, IP", "value": 75, "unit": "%"},
      {"measurement": "number of seedlings showing high luciferase activity", "setting": "[2]; 50 mM SA, of 32 seedlings", "value": 1, "unit": "seedling"},
      {"measurement": "S: Percentage of Hyg R progeny that were LUC+", "setting": "[2]; 50 mM SA, tobacco line IA", "value": 70, "unit": "%"},
      {"measurement": "G: Percentage of Hyg R progeny that exhibited high luciferase activity", "setting": "[2]; 50 mM SA, tobacco line IA (plant IA5)", "value": 3.7, "unit": "%"},
      {"measurement": "G: Percentage of Hyg R progeny that exhibited high luciferase activity", "setting": "[2]; 50 mM SA, tobacco line IP", "value": 0, "unit": "%"},
      {"measurement": "S: Percentage of Hyg R progeny that were LUC+", "setting": "[2]; 50 mM SA, tobacco line IP", "value": 100, "unit": "%"},
      {"measurement": "effect of SA concentration on frequency of LUC+ seedlings / transposition events in floral tissues", "setting": "[2]; 1, 5, 50 mM SA", "value": "dose-dependent manner"},
      {"measurement": "LUC assay: LUC+ seedlings (activity class)/HygR seedlings assayed", "setting": "[2]; plant 1M5, flowers sprayed 5 mM SA, R1 progeny, capsules A-E in successive rows", "value": "30+152"},
      {"measurement": "seedlings exhibiting luciferase activity", "setting": "[2]; plants exposed to SA (1, 5 or 50 mM) pooled, 785 out of 2053 seedlings", "value": 38, "unit": "%"},
      {"measurement": "number of seedlings showing high luciferase activity", "setting": "[2]; plants exposed to SA (1, 5 or 50 mM) pooled, of 2053 seedlings", "value": 10, "unit": "seedlings"},
      {"measurement": "frequency of fruiting", "setting": "[3]; 50 mM SA sprayed on flowering tissues, watered off after 2 hours", "value": "marked decrease"},
      {"measurement": "germination frequency of R1 progeny", "setting": "[3]; 50 mM SA, plants IA5 and IP6", "value": "low germination frequencies"}
    ]},
    {"compound": "Nc1ncn([C@@H]2O[C@H](CO)[C@@H](O)[C@H]2O)c(=O)n1", "note": "[5-azacytidine]", "values": [
      {"measurement": "transposition efficiency versus treatment with SA alone", "setting": "INAc transposition", "value": "higher"}
    ]}
  ]
}
